According to US8207154B2, “Catatonic bacteriochlorophyll derivatives” (Yeda Research and Development Co., Ltd., priority 2005, dated 2012):

Legend:
[1] = Octanol/water partition ratio; type: physicochemical
Text: Optical absorption in water, λ (relative absorption): 753 (1.00), 519 (0.30), 354 (1.25) nm. Octanol/water partition ratio is 40/60. ESI-MS (+): 413.62 ([M-2×citrate]/2). Octanol/water partition ratio is 50/50. ESI-MS (+): 455.89 ([M-2×citrate]/2). Octanol/water partition ratio is 75/25.

[2] = Pharmacokinetics in rat blood after i.v. injection (fluorescence); type: in vivo, Wistar rats
Method: (ix) Pharmacokinetics. Anesthetized Wistar rats (n=3 per each time-point) were i.v. injected with compound 5 of the invention (0.6 mg/kg). […] Control blood samples were collected from three untreated rats and treated accordingly. The test tubes containing the blood samples were weighed again in order to calculate the exact sample mass. The blood samples were then frozen in liquid nitrogen and lyophilized. The lyophilized samples were extracted with methanol (1 ml each), vortexed and centrifuged. The supernatant was collected and analyzed by fluorescence measurements (Spectrofluorimeter SLM-8000, Aminco USA). The fluorescence emission spectra were recorded in a range of 650-850 nm, with excitation at 520 nm. Fluorescence of methanol and untreated blood extracts were used as blanks. A calibration curve with known concentrations of the sensitizer was prepared.

[3] = Biodistribution in rat organs and tissues (fluorescence); type: in vivo, Wistar rats; settings: 0.6 mg/kg i.v.
Method: (x) Biodistribution. Wistar rats (n=2) were anesthetized and compound 5 of the invention (0.6 mg/kg) was injected into their tail vein. The control group (n=2) was not treated with the sensitizer. At 30 min and 24 h after injection, rats (one for each time-point), were sacrificed and samples of the indicated organs or tissues (heart, liver, lung, spleen, kidney, brain, testes, skin, muscle and fat) were collected into and weighed in pre-weighted vials, immediately frozen on dry ice and stored at […] in the dark until analyzed. For examination, each sample was thawed, weighed again, and homogenized (Polytron, Kinematica GmbH or Ultra-Turrax) in ice-cold water. The vials were then frozen in liquid nitrogen and lyophilized. The lyophilized samples were extracted with methanol (5-10 ml) in an amount equivalent to the tissue weight, and then vortexed and centrifuged. The supernatant was collected and analyzed and fluorescence measured as described in (ix) above. The fluorescence of methanol and of tissue extracts from control animals were used as blanks.

St. albus = assay: Phototoxicity on Gram-positive bacteria, colony counting; type: cell-based
Method: (ii) Bacterial cultures. Bacteria of strains St. albus and E. coli XL-1 were cultured in liquid LB medium (E. coli in LB containing 12.5 μg tetracyclin/ml) to a final density of OD600 nm=0.5-0.9 (1 OD=8×10^8 bacteria/ml). The bacteria were spun down (4000×g, 5 min.) and resuspended in PBS.
(b) Bacterial. To determine the photodynamic efficacy, bacteria were diluted to aliquots of 300 μl containing about 10^7 bacteria, and incubated with increasing concentrations of sensitizer in plastic test tubes in the dark for 1 h at room temperature, and then illuminated at 70 mW/cm^2 for 15 min. Samples of the treated bacteria cultures were subsequently plated at different dilutions (50-200 bacteria/plate) on LB agar and cultured for 24 h at 37° C. for determination of bacterial survival by colony counting. Triplicate determinations were conducted and representative experiments are shown.
The phototoxicity of positively-charged compound 5 was tested on Gram-positive St. albus and Gram-negative E. coli bacteria in comparison to the negatively-charged Pd 3^1-oxo-15-methoxycarbonylmethyl-Rhodobacteriochlorin 13^1-(2-sulfoethyl)amide dipotassium salt (described in PCT/IL03/00973). Bacteria were incubated with increasing concentrations of the sensitizers for 1 h and illuminated or kept in the dark. […] Gram-positive bacteria St. albus, was 100 times more sensitive to compound 5 than Gram-negative E. coli. No phototoxicity was observed when bacteria were incubated and treated with the same sensitizers' concentration range without illumination (dark controls).

[4] = biological target: human serum albumin (HSA) (Homo sapiens, UniProt P02768); assay: Interaction with human serum albumin (aggregation state, spectrophotometric); type: binding; settings: in PBS, 3.2×10^−4 M, 0.1-5 mg HSA
Sequence of human serum albumin (HSA) (P02768 25-609): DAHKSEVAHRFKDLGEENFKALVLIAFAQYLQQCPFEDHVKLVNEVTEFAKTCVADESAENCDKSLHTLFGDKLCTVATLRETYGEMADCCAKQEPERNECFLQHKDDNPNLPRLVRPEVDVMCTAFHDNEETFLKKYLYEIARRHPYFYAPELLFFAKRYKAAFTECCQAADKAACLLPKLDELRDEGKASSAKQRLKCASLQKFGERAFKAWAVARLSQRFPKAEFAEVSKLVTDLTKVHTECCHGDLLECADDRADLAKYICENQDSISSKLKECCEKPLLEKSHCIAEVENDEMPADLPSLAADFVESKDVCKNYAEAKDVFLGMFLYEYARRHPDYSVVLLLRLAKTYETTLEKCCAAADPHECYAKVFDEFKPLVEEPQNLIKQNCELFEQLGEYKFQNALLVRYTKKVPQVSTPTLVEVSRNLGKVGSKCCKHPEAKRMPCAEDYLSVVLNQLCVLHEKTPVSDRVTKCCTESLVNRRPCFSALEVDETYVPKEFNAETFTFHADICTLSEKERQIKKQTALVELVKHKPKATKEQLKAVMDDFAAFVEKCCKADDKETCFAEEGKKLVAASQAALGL
Method: A solution of 5 in PBS (3.2×10^−4 M, 100 μl) was mixed with various amounts of human serum albumin (0.1, 0.5, 1, 2, and 5 mg). Aggregation, at high concentrations of 5 in aqueous solutions, is reflected by splitting of the original monomeric peak at 747 nm into two new peaks at 720 and 760 nm. The state of aggregation was followed spectrophotometrically over the range of albumin concentrations at room temperature in a 0.1 mm cuvette. The absorbance intensity values at the peak wavelengths were taken as an indication of the aggregation.
Addition of the albumin caused disaggregation of the sensitizer 5 in PBS (FIG. 2). The absorption spectra of the solutions containing increasing amounts of albumin resembled the spectrum of the monomeric pigment 5 in methanol.

Substance: 3^1-Oxo-15-methoxycarbonylmethyl-Rhodo-bacteriochlorin 13^1,17^3-di(2-N^3-trimethylammoniumethyl)amide dicitrate salt [Compound 5]
- Octanol/water partition ratio ([1]; dicitrate salt): 40/60
- Octanol/water partition ratio ([1]; listed as 2, dicitrate salt): 75/25
- clearance kinetics ([2]; 24 h after i.v. administration): bicompartmental distribution
- sensitizer cleared ([2]; within 30 min after i.v. injection (0.6 mg/kg)): about 60%
- levels of the sensitizer in organs ([3]; 30 min after injection): relatively high in the blood, kidneys and lungs
- level of the sensitizer in the blood ([3]; 24 h after injection): almost background level
- levels of the sensitizer in organs ([3]; 24 h after injection): significant levels were still found in the kidneys, liver and spleen
- sensitivity of St. albus relative to E. coli (St. albus): 100 times
- phototoxic killing concentration (St. albus; 1 h incubation, illuminated 15 min at 70 mW/cm^2, read-out: Kd (phototoxicity)): 20 nM
- aggregation state on addition of albumin [4]: disaggregation
